Broadly, the GI50 is the concentration that inhibits growth by half. A word on the TGI: it is the concentration at which net growth stops. A low value points to more potent growth arrest.

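Step 1: Grow cells in 96-well plates. Step 2: Expose to compound for 48 hours at 5 concentrations. Step 3: Interpolate endpoints linearly; if unreached, use highest concentration. GI50: concentration for 50% inhibition of growth. At the TGI there is no net growth.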

In PubChem BioAssay (NCI) one finds GI50 and TGI data, which are given here for twelve molecules.

Test systems include UACC-257 melanoma; OVCAR-4 ovarian; KM12 colon; M19-MEL melanoma; K-562 leukemia; KM20L2 colon; SK-MEL-2 melanoma; SW-620 colon; SK-MEL-5 melanoma; MDA-MB-435.
Holding throughout (test): DTP human tumour cell line panel, 48 h

Regarding `COc1ccc2nc3cc(Cl)ccc3c(Sc3ccc([N+](=O)[O-])cc3)c2c1`, the GI50 with UACC-257 melanoma, in the assay on OVCAR-4 ovarian, in the assay with KM12 colon, in the assay on M19-MEL melanoma, in the assay with K-562 leukemia and in the assay with KM20L2 colon was above 100 µM in each case. The GI50 in the assay with SK-MEL-2 melanoma, with SW-620 colon and in the assay with SK-MEL-5 melanoma was above 100 µM in each case. For the same molecule, the total growth inhibition concentration (TGI) in the assay on UACC-257 melanoma, in the assay with OVCAR-4 ovarian, with KM12 colon, in the assay with M19-MEL melanoma, in the assay on K-562 leukemia and in the assay on KM20L2 colon was above 100 µM each time. The TGI with SK-MEL-2 melanoma, in the assay with SW-620 colon and in the assay with SK-MEL-5 melanoma was above 100 µM in each case.
Turning to `COC(=O)C(Cc1nc2ccccc2nc1C)/C(=N\NC(N)=O)C(=O)Nc1cccc([N+](=O)[O-])c1` (configuration not stated), the TGI in the assay with UACC-257 melanoma, with OVCAR-4 ovarian, with KM12 colon, in the assay on M19-MEL melanoma, in the assay with K-562 leukemia and in the assay on KM20L2 colon was above 100 µM throughout. Further, the TGI with SK-MEL-2 melanoma, with SW-620 colon and in the assay with SK-MEL-5 melanoma was above 100 µM each time.
For `COc1ccc(C2C(C)C(=O)C(C)C(c3ccc(OC)cc3)N2N=O)cc1` (configuration not stated), the TGI in the assay with UACC-257 melanoma, with OVCAR-4 ovarian, in the assay with KM12 colon, in the assay with M19-MEL melanoma, with K-562 leukemia and in the assay with KM20L2 colon was above 1000 µM throughout. In addition, the TGI in the assay on SK-MEL-2 melanoma is 602 µM; in the assay on MDA-MB-435, 343 µM; with SW-620 colon it was above 1000 µM; with SK-MEL-5 melanoma, above 750 µM. For the same molecule, the GI50 is above 750 µM in the assay on OVCAR-4 ovarian; above 1000 µM with M19-MEL melanoma; above 750 µM in the assay on K-562 leukemia; above 750 µM in the assay on SW-620 colon; above 750 µM with SK-MEL-5 melanoma.
`CC#CC1C2CCCC1(CSc1ccccc1)NC(=O)O2` (configuration not stated): the TGI in the assay on UACC-257 melanoma, with OVCAR-4 ovarian, in the assay with KM12 colon, in the assay on M19-MEL melanoma, in the assay on K-562 leukemia and in the assay on KM20L2 colon was above 100 µM each time. In addition, the TGI with SK-MEL-2 melanoma, in the assay with SW-620 colon and in the assay on SK-MEL-5 melanoma was above 100 µM throughout.
On to `C=C(C(=C)P(=S)(c1ccccc1)c1ccccc1)P(=S)(c1ccccc1)c1ccccc1`, for which the TGI with UACC-257 melanoma, in the assay on OVCAR-4 ovarian, in the assay with KM12 colon, in the assay on M19-MEL melanoma, in the assay on K-562 leukemia and with KM20L2 colon was above 100 µM in each case. For the same molecule, the TGI in the assay with SK-MEL-2 melanoma, in the assay on SW-620 colon and with SK-MEL-5 melanoma was above 100 µM each time.
`COc1ccccc1NC(=O)c1nc2ccc([N+](=O)[O-])cc2nc1C`: the TGI in the assay with UACC-257 melanoma, with OVCAR-4 ovarian, in the assay on KM12 colon, in the assay on M19-MEL melanoma, with K-562 leukemia and in the assay with KM20L2 colon was above 100 µM throughout. In addition, the total growth inhibition concentration (TGI) in the assay on SK-MEL-2 melanoma, with SW-620 colon and with SK-MEL-5 melanoma was above 100 µM each time.
Turning to `CN1CCN(C)C12C=CC=CC21CC1`, the TGI in the assay with UACC-257 melanoma, with OVCAR-4 ovarian, in the assay with KM12 colon, in the assay with M19-MEL melanoma, in the assay with K-562 leukemia and with KM20L2 colon was above 100 µM throughout. Besides, the TGI in the assay on SK-MEL-2 melanoma, in the assay on SW-620 colon and in the assay on SK-MEL-5 melanoma was above 100 µM in each case.
As to `CC(=O)OC12COC1CC(O)C1(C)C(=O)C(O)C3=C(C)C(O)CC(O)(C(OC(=O)c4ccccc4)C21)C3(C)C` (configuration not stated), the concentration for total growth inhibition (TGI) in the assay on UACC-257 melanoma is above 100 µM; in the assay with OVCAR-4 ovarian it was above 100 µM; in the assay with KM12 colon it was above 100 µM; with M19-MEL melanoma, above 100 µM; in the assay on K-562 leukemia, above 100 µM; with KM20L2 colon it was 5.42 µM. Besides, the concentration for total growth inhibition (TGI) in the assay with SK-MEL-2 melanoma is 6.51 µM; in the assay on MDA-MB-435, 1.48 µM; in the assay on SW-620 colon, above 100 µM; in the assay with SK-MEL-5 melanoma, 29.5 µM. In addition, the GI50 in the assay with KM12 colon is 1.22 µM; in the assay on SK-MEL-2 melanoma, 1.84 µM; in the assay with SW-620 colon it was 2.48 µM.
Take `CC(=O)NC1C(OCc2ccccc2)OC(COC(=O)CCCCCCCCCCNc2ccc([N+](=O)[O-])c3[nH]c4ccccc4c(=O)c23)C(O)C1OC(C)C(=O)NC(C)C(=O)NC(CCC(N)=O)C(=O)OCc1ccccc1` (configuration not stated): the TGI in the assay on UACC-257 melanoma, in the assay with OVCAR-4 ovarian, in the assay on KM12 colon, in the assay on M19-MEL melanoma, with K-562 leukemia and in the assay on KM20L2 colon was above 100 µM in each case. Besides, the TGI in the assay on SK-MEL-2 melanoma, in the assay on SW-620 colon and in the assay with SK-MEL-5 melanoma was above 100 µM in each case.
Regarding `COC(=O)C1=C(C(=O)OC)C2(C)Nc3ccccc3C2=C(c2ccccc2)C1` (configuration not stated), the TGI in the assay with UACC-257 melanoma came to 39.7 µM; in the assay with OVCAR-4 ovarian it was 50.1 µM; with KM12 colon it was 30.3 µM; in the assay on M19-MEL melanoma, 46 µM; with K-562 leukemia, 47.8 µM; in the assay with KM20L2 colon it was 74.3 µM. In addition, the TGI in the assay with SK-MEL-2 melanoma stood at 39 µM; with SW-620 colon, 69.6 µM; in the assay with SK-MEL-5 melanoma, 29.9 µM.
Turning to `Clc1ccc(-c2c(C3=NCCCN3)nnn2-c2ccccc2)cc1`, the TGI in the assay with UACC-257 melanoma, in the assay with OVCAR-4 ovarian, with KM12 colon, in the assay on M19-MEL melanoma, in the assay with K-562 leukemia and in the assay on KM20L2 colon was above 100 µM throughout. For the same molecule, the TGI is above 100 µM with SK-MEL-2 melanoma, 46.7 µM in the assay on SW-620 colon and above 100 µM in the assay on SK-MEL-5 melanoma.
Consider `OCCN1CCN2C=C(C3CCCC4N(CCO)CCN34)CCC21` (configuration not stated), for which the TGI in the assay with UACC-257 melanoma is above 100 µM; with OVCAR-4 ovarian it was above 100 µM; in the assay with KM12 colon, above 100 µM; with M19-MEL melanoma it was above 100 µM; in the assay with K-562 leukemia, above 61.5 µM; in the assay on KM20L2 colon, above 100 µM. Moreover, the results for the TGI in the assay on SK-MEL-2 melanoma, in the assay on SW-620 colon and in the assay with SK-MEL-5 melanoma were above 75.6 µM, above 67.9 µM and above 100 µM, respectively.
